Laboratory results: PMC11200585, “Prospects for Prostate Cancer Chemotherapy: Cytotoxic Evaluation and Mechanistic Insights of Quinolinequinones with ADME/PK Profile” (Biomedicines, 2024)

Columns and labels:
Format in all cases: cell-based, human
UACC-257 = assay: NCI-60 one-dose screen (melanoma); conditions: 10 µM single dose, 48 h
Procedure: (§1) The obtained quinolinequinones were submitted to NCI, Bethesda, USA, and, as per standard protocol of NCI, all compounds were evaluated for their antiproliferative activity at single-dose assay (10 µM concentration in DMSO) on a panel of 60 cancer cell lines derived from leukemia, non-small-cell lung, colon, CNS, melanoma, ovarian, renal, prostate, and breast, as per protocol. Tested compounds were added to the microtiter culture plates followed by incubation for 48 h at 37 °C. Sulforhodamine B (SRB), a protein-binding dye, is used for endpoint determination. The percent of the growth of the treated cells was determined in comparison to the untreated control cells and the results of each tested compound were reported. Data from one-dose experiments pertain to the percentage growth at 10 μM [16, 17, 18].

MDA-MB-435 = assay: NCI-60 one-dose screen (melanoma); conditions: 10 µM single dose, 48 h
Procedure: as §1

LOX IMVI = assay: NCI-60 one-dose screen (melanoma); conditions: 10 µM single dose, 48 h
Procedure: as §1

SK-MEL-28 = assay: NCI-60 one-dose screen (melanoma); conditions: 10 µM single dose, 48 h
Procedure: as §1

SK-MEL-2 = assay: NCI-60 one-dose screen (melanoma); conditions: 10 µM single dose, 48 h
Procedure: as §1

UACC-62 = assay: NCI-60 one-dose screen (melanoma); conditions: 10 µM single dose, 48 h
Procedure: as §1

MALME-3M = assay: NCI-60 one-dose screen (melanoma); conditions: 10 µM single dose, 48 h
Procedure: as §1

SK-MEL-5 = assay: NCI-60 one-dose screen (melanoma); conditions: 10 µM single dose, 48 h
Procedure: as §1

A498 = assay: NCI-60 one-dose screen (renal cancer); conditions: 10 µM single dose, 48 h
Procedure: as §1

786-0 = assay: NCI-60 one-dose screen (renal cancer); conditions: 10 µM single dose, 48 h
Procedure: as §1

UO-31 = assay: NCI-60 one-dose screen (renal cancer); conditions: 10 µM single dose, 48 h
Procedure: as §1

ACHN = assay: NCI-60 one-dose screen (renal cancer); conditions: 10 µM single dose, 48 h
Procedure: as §1

TK-10 = assay: NCI-60 one-dose screen (renal cancer); conditions: 10 µM single dose, 48 h
Procedure: as §1

SN12C = assay: NCI-60 one-dose screen (renal cancer); conditions: 10 µM single dose, 48 h
Procedure: as §1

DU-145 = assay: NCI-60 one-dose screen (prostate cancer); conditions: 10 µM single dose, 48 h
Procedure: as §1

PC-3 = assay: NCI-60 one-dose screen (prostate cancer); conditions: 10 µM single dose, 48 h
Procedure: as §1

MOLT-4 = assay: NCI-60 one-dose screen (leukemia); conditions: 10 µM single dose, 48 h
Procedure: as §1

CCRF-CEM = assay: NCI-60 one-dose screen (leukemia); conditions: 10 µM single dose
Procedure: as §1

HL-60(TB) = assay: NCI-60 one-dose screen (leukemia); conditions: 10 µM single dose
Procedure: as §1

K-562 = assay: NCI-60 one-dose screen (leukemia)
Procedure: as §1

RPMI-8226 = assay: NCI-60 one-dose screen (leukemia); conditions: 10 µM single dose, 48 h
Procedure: as §1

SR = assay: NCI-60 one-dose screen (leukemia); conditions: 10 µM single dose
Procedure: as §1

SF-295 = assay: NCI-60 one-dose screen (CNS cancer); conditions: 10 µM single dose, 48 h
Procedure: as §1

SF-539 = assay: NCI-60 one-dose screen (CNS cancer); conditions: 10 µM single dose, 48 h
Procedure: as §1

U251 = assay: NCI-60 one-dose screen (CNS cancer); conditions: 10 µM single dose, 48 h
Procedure: as §1

SF-268 = assay: NCI-60 one-dose screen (CNS cancer); conditions: 10 µM single dose, 48 h
Procedure: as §1

SNB-75 = assay: NCI-60 one-dose screen (CNS cancer); conditions: 10 µM single dose, 48 h
Procedure: as §1

SNB-19 = assay: NCI-60 one-dose screen (CNS cancer); conditions: 10 µM single dose, 48 h
Procedure: as §1

HT29 = assay: NCI-60 one-dose screen (colon cancer); conditions: 10 µM single dose, 48 h
Procedure: as §1

KM12 = assay: NCI-60 one-dose screen (colon cancer); conditions: 10 µM single dose, 48 h
Procedure: as §1

HCC-2998 = assay: NCI-60 one-dose screen (colon cancer); conditions: 10 µM single dose, 48 h
Procedure: as §1

HCT-15 = assay: NCI-60 one-dose screen (colon cancer); conditions: 10 µM single dose, 48 h
Procedure: as §1

SW-620 = assay: NCI-60 one-dose screen (colon cancer); conditions: 10 µM single dose, 48 h
Procedure: as §1

COLO 205 = assay: NCI-60 one-dose screen (colon cancer); conditions: 10 µM single dose, 48 h
Procedure: as §1

HCT-116 = assay: NCI-60 one-dose screen (colon cancer); conditions: 10 µM single dose, 48 h
Procedure: as §1

OVCAR-5 = assay: NCI-60 one-dose screen (ovarian cancer); conditions: 10 µM single dose, 48 h
Procedure: as §1

NCI/ADR-RES = assay: NCI-60 one-dose screen (ovarian cancer); conditions: 10 µM single dose, 48 h
Procedure: as §1

OVCAR-8 = assay: NCI-60 one-dose screen (ovarian cancer); conditions: 10 µM single dose, 48 h
Procedure: as §1

OVCAR-4 = assay: NCI-60 one-dose screen (ovarian cancer); conditions: 10 µM single dose, 48 h
Procedure: as §1

OVCAR-3 = assay: NCI-60 one-dose screen (ovarian cancer); conditions: 10 µM single dose
Procedure: as §1

IGROV1 = assay: NCI-60 one-dose screen (ovarian cancer)
Procedure: as §1

SK-OV-3 = assay: NCI-60 one-dose screen (ovarian cancer); conditions: 10 µM single dose, 48 h
Procedure: as §1

MCF7 = assay: NCI-60 one-dose screen (breast cancer); conditions: 10 µM single dose, 48 h
Procedure: as §1

MDA-MB-231/ATCC = assay: NCI-60 one-dose screen (breast cancer); conditions: 10 µM single dose, 48 h
Procedure: as §1

HS 578T = assay: NCI-60 one-dose screen (breast cancer); conditions: 10 µM single dose, 48 h
Procedure: as §1

T-47D = assay: NCI-60 one-dose screen (breast cancer); conditions: 10 µM single dose
Procedure: as §1

MDA-MB-468 = assay: NCI-60 one-dose screen (breast cancer); conditions: 10 µM single dose, 48 h
Procedure: as §1

BT-549 = assay: NCI-60 one-dose screen (breast cancer); conditions: 10 µM single dose, 48 h
Procedure: as §1

A549/ATCC = assay: NCI-60 one-dose screen (non-small cell lung cancer); conditions: 10 µM single dose, 48 h
Procedure: as §1

NCI-H522 = assay: as above; conditions: 10 µM single dose, 48 h
Procedure: as §1

NCI-H460 = assay: as above; conditions: 10 µM single dose, 48 h
Procedure: as §1

HOP-92 = assay: as above; conditions: 10 µM single dose, 48 h
Procedure: as §1

NCI-H23 = assay: as above; conditions: 10 µM single dose, 48 h
Procedure: as §1

HOP-62 = assay: as above; conditions: 10 µM single dose, 48 h
Procedure: as §1

NCI-H226 = assay: as above; conditions: 10 µM single dose, 48 h
Procedure: as §1

EKVX = assay: as above; conditions: 10 µM single dose, 48 h
Procedure: as §1

NCI-H322M = assay: as above; conditions: 10 µM single dose, 48 h
Procedure: as §1

COc1ccc(NC2=C(Cl)C(=O)c3nc(C)ccc3C2=O)cc1OC [AQQ4]
GP (growth percentage) (UACC-257): 91.03% | GP (growth percentage) (MDA-MB-435): −67.16% | GP (growth percentage) (LOX IMVI): −3.09% | GP (growth percentage) (SK-MEL-28): 101.65% | GP (growth percentage) (SK-MEL-2): 100.13% | GP (growth percentage) (UACC-62): 71.83% | GP (growth percentage) (MALME-3M): 94.54% | GP (growth percentage) (SK-MEL-5): 86.57% | GP (growth percentage) (A498): 82.55% | GP (growth percentage) (786-0): 98.99% | GP (growth percentage) (UO-31): 100.30% | GP (growth percentage) (ACHN): 95.00% | GP (growth percentage) (TK-10): 148.82% | GP (growth percentage) (SN12C): 90.46% | GP (growth percentage) (DU-145): 93.00% | GP (growth percentage) (PC-3): 70.56% | GP (growth percentage) (MOLT-4): 69.83% | GP (growth percentage) (CCRF-CEM; 48 h): 15.29% | inhibition at 10 µM (CCRF-CEM; Homo sapiens): 84.7% | GP (growth percentage) (HL-60(TB); 48 h): 9.95% | inhibition at 10 µM (HL-60(TB); Homo sapiens): 90% | GP (growth percentage) (K-562; 10 µM single dose, 48 h): 7.18% | inhibition at 10 µM (K-562; Homo sapiens, K562, 10 µM single dose): 92.8% | GP (growth percentage) (RPMI-8226): 47.33% | GP (growth percentage) (SR; 48 h): 0.92% | inhibition at 10 µM (SR; Homo sapiens): 99.1% | GP (growth percentage) (SF-295): 103.62% | GP (growth percentage) (SF-539): 103.46% | GP (growth percentage) (U251): 105.80% | GP (growth percentage) (SF-268): 84.69% | GP (growth percentage) (SNB-75): 110.92% | GP (growth percentage) (SNB-19): 94.62% | GP (growth percentage) (HT29): 109.56% | GP (growth percentage) (KM12): 98.23% | GP (growth percentage) (HCC-2998): 103.69% | GP (growth percentage) (HCT-15): 82.29% | GP (growth percentage) (SW-620): 72.23% | GP (growth percentage) (COLO 205): 107.70% | GP (growth percentage) (HCT-116): 55.84% | GP (growth percentage) (OVCAR-5): 104.66% | GP (growth percentage) (NCI/ADR-RES): 94.66% | GP (growth percentage) (OVCAR-8): 92.63% | GP (growth percentage) (OVCAR-4): 71.38% | GP (growth percentage) (OVCAR-3; 48 h): 13.16% | inhibition at 10 µM (OVCAR-3; Homo sapiens): 86.8% | GP (growth percentage) (IGROV1; 10 µM single dose, 48 h): 19.63% | inhibition at 10 µM (IGROV1; Homo sapiens, IGROV-1, 10 µM single dose): 80.4% | GP (growth percentage) (SK-OV-3): 91.82% | GP (growth percentage) (MCF7): 59.00% | GP (growth percentage) (MDA-MB-231/ATCC): 72.96% | GP (growth percentage) (HS 578T): 118.57% | GP (growth percentage) (T-47D; 48 h): 14.93% | inhibition at 10 µM (T-47D; Homo sapiens, T47D): 85.1% | GP (growth percentage) (MDA-MB-468): 58.11% | GP (growth percentage) (BT-549): 126.22% | GP (growth percentage) (A549/ATCC): 107.06% | GP (growth percentage) (NCI-H522): 78.84% | GP (growth percentage) (NCI-H460): 100.46% | GP (growth percentage) (HOP-92): 112.07% | GP (growth percentage) (NCI-H23): 59.03% | GP (growth percentage) (HOP-62): 110.03% | GP (growth percentage) (NCI-H226): 97.11% | GP (growth percentage) (EKVX): 50.81% | GP (growth percentage) (NCI-H322M): 99.05%
